This note sets out measurements from ChEMBL document CHEMBL3808279, “Sequential one-pot synthesis of bis(indolyl)glyoxylamides: Evaluation of antibacterial and anticancer activities” (Bioorg Med Chem Lett, 2016).

pIC50: −log10 of the molar value. ≈ marks a conversion by molar mass, not a printed value.

The first experiment concerns Escherichia coli. Put plainly: Antibacterial activity against Escherichia coli after 18 to 24 hrs by microbroth dilution method. Format: functional.
Conditions: not given
In the case of `COc1ccc2c(c1)c(C(=O)C(=O)NCCc1c[nH]c3ccccc13)cn2Cc1ccc(Cl)cc1`, the “inhibition zone (IZ)” value was determined as 13 mm.

Consider `COc1ccc2c(C(=O)C(=O)NCCc3c[nH]c4ccccc34)cn(Cc3ccc(Cl)cc3)c2c1`, for which the “inhibition zone (IZ)” value stood at 15 mm.

With `COc1ccc2[nH]cc(C(=O)C(=O)CCCc3c[nH]c4ccccc34)c2c1`, the “inhibition zone (IZ)” value is 15 mm.

The same experiment, now with this note: Escherichia coli.
In the case of `COc1ccc2c(c1)c(C(=O)C(=O)NCCc1c[nH]c3ccccc13)cn2Cc1ccc(Cl)cc1`, the MIC – broadly, the lowest concentration found to suppress growth – was more than 100 µg/mL.

As to `COc1ccc2c(C(=O)C(=O)NCCc3c[nH]c4ccccc34)cn(Cc3ccc(Cl)cc3)c2c1`, it took 50 µg/mL (≈ 103 µM) to inhibit growth (MIC).

`COc1ccc2[nH]cc(C(=O)C(=O)CCCc3c[nH]c4ccccc34)c2c1`: the lowest concentration to inhibit growth (MIC) was 100 µg/mL (≈ 277 µM).

The next experiment deals with Klebsiella pneumoniae. Description: Antibacterial activity against Klebsiella pneumoniae after 18 to 24 hrs by microbroth dilution method. The format is functional.
Conditions: not given
Regarding `COc1ccc2c(C(=O)C(=O)NCCc3c[nH]c4ccccc34)cn(Cc3ccc(Cl)cc3)c2c1`, the “inhibition zone (IZ)” value stood at 15 mm.

Consider `COc1ccc2[nH]cc(C(=O)C(=O)CCCc3c[nH]c4ccccc34)c2c1`, for which the “inhibition zone (IZ)” value was determined as 15 mm.

The same experiment, now with this note: Klebsiella pneumoniae.
Turning to `COc1ccc2c(C(=O)C(=O)NCCc3c[nH]c4ccccc34)cn(Cc3ccc(Cl)cc3)c2c1`, the MIC is more than 50 µg/mL.

`COc1ccc2[nH]cc(C(=O)C(=O)CCCc3c[nH]c4ccccc34)c2c1`: the MIC stood at 50 µg/mL (≈ 139 µM).

Another experiment concerns HeLa. Put plainly: Cytotoxicity against human HeLa cells after 48 hrs by MTT assay. Format: functional, cell-based.
Conditions: not given
For orientation: Formazan colour is commonly taken as a measure of viable cells.
Consider `COc1ccc2c(c1)c(C(=O)C(=O)NCCc1c[nH]c3ccccc13)cn2Cc1ccc(Cl)cc1`, for which the pIC50 (commonly the IC50 on a negative log10 scale, so that one unit is a factor of ten) was less than 4.00.

For `COc1ccc2c(C(=O)C(=O)NCCc3c[nH]c4ccccc34)cn(Cc3ccc(Cl)cc3)c2c1`, the pIC50 was less than 4.00.

`COc1ccc2[nH]cc(C(=O)C(=O)CCCc3c[nH]c4ccccc34)c2c1`: the pIC50 is less than 4.00.

Test system in the next experiment: not listed separately
Description: Cytotoxicity against human HEK293T cells after 48 hrs by MTT assay. The format is cell-based. As to conditions: HEK-293T.
`COc1ccc2c(c1)c(C(=O)C(=O)NCCc1c[nH]c3ccccc13)cn2Cc1ccc(Cl)cc1`: the negative-log IC50 (pIC50) is less than 4.00.

For the compound `COc1cccc2c1C(=O)c1c(O)c3c(c(O)c1C2=O)C[C@@](O)(C(=O)CO)C[C@@H]3O[C@H]1C[C@H](N)[C@H](O)[C@H](C)O1` [DOXORUBICIN], the pIC50 is 5.51.

The compound `COc1ccc2c(C(=O)C(=O)NCCc3c[nH]c4ccccc34)cn(Cc3ccc(Cl)cc3)c2c1` showed a pIC50 of less than 4.00.

As for `COc1ccc2[nH]cc(C(=O)C(=O)CCCc3c[nH]c4ccccc34)c2c1`, the pIC50 is less than 4.00.

Test system in a further experiment: not listed separately
Put plainly: Cytotoxicity against human BxPC3 cells after 48 hrs by MTT assay. The format is functional, cell-based. As to conditions: BXPC-3, 48 h.
`COc1ccc2c(c1)c(C(=O)C(=O)NCCc1c[nH]c3ccccc13)cn2Cc1ccc(Cl)cc1` had a pIC50 of less than 4.00.

The compound `COc1cccc2c1C(=O)c1c(O)c3c(c(O)c1C2=O)C[C@@](O)(C(=O)CO)C[C@@H]3O[C@H]1C[C@H](N)[C@H](O)[C@H](C)O1` [DOXORUBICIN] gave a pIC50 of 4.89.

Take `COc1ccc2c(C(=O)C(=O)NCCc3c[nH]c4ccccc34)cn(Cc3ccc(Cl)cc3)c2c1`: the pIC50 was less than 4.00.

In the case of `COc1ccc2[nH]cc(C(=O)C(=O)CCCc3c[nH]c4ccccc34)c2c1`, the pIC50 was less than 4.00.

Test system in a further experiment: not listed separately
Put plainly: Cytotoxicity against human PC3 cells after 48 hrs by MTT assay. The settings on record: PC-3, 48 h. The format is functional, cell-based.
For the compound `COc1ccc2c(c1)c(C(=O)C(=O)NCCc1c[nH]c3ccccc13)cn2Cc1ccc(Cl)cc1`, the pIC50 is less than 4.00.

`COc1cccc2c1C(=O)c1c(O)c3c(c(O)c1C2=O)C[C@@](O)(C(=O)CO)C[C@@H]3O[C@H]1C[C@H](N)[C@H](O)[C@H](C)O1` [DOXORUBICIN] showed a pIC50 of 5.02.

Regarding `COc1ccc2c(C(=O)C(=O)NCCc3c[nH]c4ccccc34)cn(Cc3ccc(Cl)cc3)c2c1`, the pIC50 was less than 4.00.

In the case of `COc1ccc2[nH]cc(C(=O)C(=O)CCCc3c[nH]c4ccccc34)c2c1`, the pIC50 is less than 4.00.

Test system in another experiment: not listed separately
Put plainly: Cytotoxicity against human C4-2 cells after 48 hrs by MTT assay. The format is functional, cell-based. As to conditions: LNCaP C4-2, 48 h.
`COc1ccc2c(c1)c(C(=O)C(=O)NCCc1c[nH]c3ccccc13)cn2Cc1ccc(Cl)cc1` showed a pIC50 of less than 4.00.

Turning to `COc1cccc2c1C(=O)c1c(O)c3c(c(O)c1C2=O)C[C@@](O)(C(=O)CO)C[C@@H]3O[C@H]1C[C@H](N)[C@H](O)[C@H](C)O1` [DOXORUBICIN], the pIC50 is 5.73.

In turn, `COc1ccc2c(C(=O)C(=O)NCCc3c[nH]c4ccccc34)cn(Cc3ccc(Cl)cc3)c2c1` gave a pIC50 of less than 4.00.

For the compound `COc1ccc2[nH]cc(C(=O)C(=O)CCCc3c[nH]c4ccccc34)c2c1`, the pIC50 was less than 4.00.

The next experiment relates to Pseudomonas putida. Put plainly: Antibacterial activity against Pseudomonas putida after 18 to 24 hrs by microbroth dilution method. Format: functional.
Conditions: not given
(In broth dilution the organism is exposed to a series of concentrations in liquid medium.)
On to `COc1ccc2c(c1)c(C(=O)C(=O)NCCc1c[nH]c3ccccc13)cn2Cc1ccc(Cl)cc1`, for which the “inhibition zone (IZ)” value came to 15 mm.

For `COc1ccc2c(C(=O)C(=O)NCCc3c[nH]c4ccccc34)cn(Cc3ccc(Cl)cc3)c2c1`, the “inhibition zone (IZ)” value was 16 mm.

Take `COc1ccc2[nH]cc(C(=O)C(=O)CCCc3c[nH]c4ccccc34)c2c1`: the “inhibition zone (IZ)” value is on record as 15 mm.

Staying with this experiment, now noted: Pseudomonas putida.
Consider `COc1ccc2c(c1)c(C(=O)C(=O)NCCc1c[nH]c3ccccc13)cn2Cc1ccc(Cl)cc1`, for which 50 µg/mL (≈ 103 µM) was the least that counted as inhibitory (MIC).

Compound `COc1ccc2c(C(=O)C(=O)NCCc3c[nH]c4ccccc34)cn(Cc3ccc(Cl)cc3)c2c1` gave an MIC of 50 µg/mL (≈ 103 µM).

For the compound `COc1ccc2[nH]cc(C(=O)C(=O)CCCc3c[nH]c4ccccc34)c2c1`, the MIC stood at 100 µg/mL (≈ 277 µM).

For the next experiment, the system named is MDA-MB-231. Put plainly: Cytotoxicity against human MDA-MB-231 cells after 48 hrs by MTT assay. As to conditions: MDA-MB-231, 48 h. The format is functional, cell-based.
`COc1ccc2c(c1)c(C(=O)C(=O)NCCc1c[nH]c3ccccc13)cn2Cc1ccc(Cl)cc1`: the negative logarithm of the IC50 (pIC50) is less than 4.00.

On to `COc1ccc2c(C(=O)C(=O)NCCc3c[nH]c4ccccc34)cn(Cc3ccc(Cl)cc3)c2c1`, for which the pIC50 is less than 4.00.

For the compound `COc1ccc2[nH]cc(C(=O)C(=O)CCCc3c[nH]c4ccccc34)c2c1`, the pIC50 is less than 4.00.
